Earlier results in patent publication US5766627A, “Multivescular liposomes with controlled release of encapsulated biologically active substances” (priority 1997, dated 1998).

Experiments:
[1] = free amikacin, background statement
[2] = test system: strains of gram negative bacteria; conditions: clinical, background statement
[3] = test system: strains of gram positive bacteria; conditions: clinical, background statement

For `NCC[C@H](O)C(=O)N[C@@H]1C[C@H](N)[C@@H](O[C@H]2O[C@H](CN)[C@@H](O)[C@H](O)[C@H]2O)[C@H](O)[C@H]1O[C@H]1O[C@H](CO)[C@@H](O)[C@H](N)[C@H]1O` [amikacin], the serum half-life [1] is listed as “two to three”, the “activity against gram negative bacteria” value [2] is listed as “clinically significant activity” and the “activity against gram positive bacteria” value [3] is listed as “clinically significant activity”.
